Test results taken from US6342498B1, “Arylpiperazines as serotonin reuptake inhibitors and 5-HT1Dα antagonists” (Eli Lilly and Company, priority 1997, dated 2002).
Structures can show the parent of a compound that is named as a salt.

Row | SMILES | melting point [°C]
1 | COc1ccccc1N1CCN(CCCCCCN2CC=C(c3c[nH]c4cc(F)ccc34)CC2)CC1 [Example 14, 1-(2-methoxyphenyl)-4-(6-(4-(6-fluoroindole-3-yl)-1,2,3,6-tetrahydropyridin-1-yl)hex-1-yl)piperazine] | 105 to 107
2 | COc1ccccc1N1CCN(CCCCCCN2CCC(c3c[nH]c4cc(F)ccc34)CC2)CC1 (as salt: hydrochloride) [Example 22, 1-(2-methoxyphenyl)-4-(6-(4-(6-fluoroindol-3-yl)-piperidin-1-yl)hex-1-yl)piperazine trihydrochloride] | 145 to 147
3 | COc1ccccc1N1CCN(CCNCCCN2CCC(c3c[nH]c4cc(Cl)ccc34)CC2)CC1 (as salt: hydrochloride) [Example 10, N-(2-(4-(2-methoxyphenyl)piperazin-1-yl)eth-1-yl)-N-3-(4-(6-chloroindol-3-yl)-piperidin-1-yl)prop-1-ylamine tetrahydrochloride] | 91 to 95
4 | COc1ccccc1N1CCN(CCCCCN2CC=C(c3c[nH]c4cc(Cl)ccc34)CC2)CC1 [Example 15, 1-(2-methoxyphenyl)-4-(5-(4-(6-chloroindole-3-yl)-1,2,3,6-tetrahydropyridin-1-yl)pent-1-yl)piperazine] | 126 to 128
5 | COc1ccccc1N1CCN(CCCCCN2CCC(c3c[nH]c4cc(Cl)ccc34)CC2)CC1 (as salt: hydrochloride) [Example 20, 1-(2-methoxyphenyl) -4-(5-(4-(6-chloroindole-3-yl) -piperidin-1-yl)pent-1-yl)piperazine trihydrochloride] | 139 to 141
6 | COc1ccccc1N1CCN(CCCCCN2CC=C(c3c[nH]c4cc(F)ccc34)CC2)CC1 [Example 16, 1-(2-methoxyphenyl)-4-(5-(4-(6-fluoroindole-3-yl)-1,2,3,6-tetrahydropyridin-1-yl)pent-1-yl)piperazine] | 69 to 71
7 | COc1ccccc1N1CCN(CCCCCN2CCC(c3c[nH]c4cc(F)ccc34)CC2)CC1 (as salt: hydrochloride) [Example 19, 1-(2-methoxyphenyl) -4-(5-(4-(6-fluoroindole-3-yl) -piperidin-1-yl)pent-1-yl)piperazine trihydrochloride] | 113 to 115
8 | COc1ccccc1N1CCN(CCNCCCN2CC=C(c3c[nH]c4cc(F)ccc34)CC2)CC1 [Example 6, N-(2-(4-(2-methoxyphenyl)piperazin-1-yl)eth-1-yl)-N3-(4-(6-fluoroindol-3-yl)-1,2,3,6-tetrahydropyridin-1-yl)prop-1-ylamine] | 82 to 84
9 | COc1ccccc1N1CCN(CCNCCCN2CC=C(c3c[nH]c4cc(Cl)ccc34)CC2)CC1 [Example 7, N-(2-(4-(2-methoxyphenyl)piperazin-1-yl)eth-1-yl)-N-3-(4-(6-chloroindol-3-yl)-1,2,3,6-tetrahydropyridin-1-yl)prop-1-ylamine] | 71 to 73
10 | COc1ccccc1N1CCN(CCNCCN2CC=C(c3c[nH]c4cc(Cl)ccc34)CC2)CC1 [Example 12, N-(2-(4-(2-methoxyphenyl)piperazin-1-yl)eth-1-yl), N-2-(4-(6-chloroindol-3-yl)-1,2,3,6-tetrahydropyridin-1-yl)eth-1-ylamine] | 78 to 80
11 | COc1ccccc1N1CCN(CCNC(=O)CCN2CC=C(c3c[nH]c4cc(F)ccc34)CC2)CC1 [Example 1, N-(2-(4-(2-methoxyphenyl)piperazin-1-yl)eth-1-yl)-3-(4-(6-fluoroindol-3-yl)-1,2,3,6-tetrahydropyridin-1-yl)propanamide] | 175 to 177
12 | COc1ccccc1N1CCN(CCNC(=O)CCN2CC=C(c3c[nH]c4cc(Cl)ccc34)CC2)CC1 [Example 2, N-(2-(4-(2-methoxyphenyl)piperazin-1-yl)eth-1-yl)-3-(4-(6-chloroindol-3-yl)-1,2,3,6-tetrahydropyridin-1-yl)propanamide] | 181 to 183
13 | COc1ccccc1N1CCN(CCCCCCN2CCC(c3c[nH]c4cc(Cl)ccc34)CC2)CC1 (as salt: hydrochloride) [Example 21, 1-(2-methoxyphenyl)-4-(6-(4-(6-chloroindol-3-yl)-piperidin-1-yl)hex-1-yl)piperazine trihydrochloride] | 185 to 187
14 | COc1ccccc1N1CCN(CCCCN2CC=C(c3c[nH]c4cc(Cl)ccc34)CC2)CC1 | 131 to 133
